# Experimental data from US20120190752A1, “EXO-S-MECAMYLAMINE METHOD, USE, AND COMPOUND FOR TREATMENT” (Targacept Inc., priority 2009, published 2012).
# Tested on: subjects with major depressive disorder (MDD) who were inadequate responders to citalopram
# Test: CGI-SI (Clinical Global Impression-Severity of Illness), Phase 2b add-on trial
# Type: in vivo, human
# From the text: The Clinical Global Impression rating scales are commonly used measures of symptom severity, treatment response and the efficacy of treatments in treatment studies of patients with mental disorders (Guy, W., 1976). The Clinical Global Impression—Severity scale (CGI-S) is a 7-point scale that requires the clinician to rate the severity of the patient's illness at the time of assessment, relative to the clinician's past experience with patients who have the same diagnosis. Considering total clinical experience, a patient is assessed on severity of mental illness at the time of rating. In more detail, a multi-center double-blind, randomized, placebo-controlled, parallel group, flexible dose titration study of TC-5214 as adjunctive therapy in subjects with major depressive disorder (MDD) who were inadequate responders to citalopram was conducted in centers in the US and India. The study consisted of a screening period, baseline/washout period, open-label phase, double-blind phase, and a follow-up visit. Subject participation in the study could continue for up to 16 weeks of treatment. Following a washout period of up to 28 days for other antidepressants, subjects with MDD and a MADRS total score >/=28 and a Clinical Global Impression-Severity (CGI-S) score >/=4 were enrolled on Day 1 into an open-label citalopram-only phase of the study. This phase lasted 8 weeks, with citalopram (CIT) dose increased from a once-daily dose of 20 mg (Day 1 through Week 4) to 40 mg (Week 4 through Week 8). A total of 579 subjects entered the open-label citalopram phase. At Week 8, subjects who tolerated 40 mg CIT, but whose MADRS score was reduced <50% from baseline and no lower than 17, and CGI-S≧4, were considered inadequate responders. These subjects (n=270) were randomized in a double-blind fashion to receive either placebo or TC-5214-23 as add-on therapy to continued CIT. The double-blind phase of the study also lasted 8 weeks (Week 8 to Week 16). Study drug, TC-5214-23 or placebo, was started at 2 mg daily (1 mg twice per day [BID] dosing), added on to continuing CIT (40 mg PO qd). After 2 weeks of treatment, the dose of TC-5214 could be increased to 4 mg (2 mg BID) or continued unchanged, with up-titration based upon good tolerability and inadequate therapeutic response. After a further 2 weeks, the dose of TC-5214 could be increased again to 8 mg (4 mg BID) if judged appropriate by the investigator, based upon good tolerability and inadequate therapeutic response. At any time during the double-blind phase of the study, placebo or TC-5214-23 could be reduced to the previous dose level following the emergence of unacceptable adverse events (AEs). […] At this follow-up, any signs or symptoms of relapse were evaluated. If a subject was prematurely discontinued from the study between Week 8 and Week 16 for any reason, the investigator was to make every effort to perform all evaluations as per protocol, assuming the subject had reached the end of the double-blind add-on treatment phase. These evaluations were to be made as soon as possible and within 2 weeks of discontinuation. […] There was no meaningful difference in results as a function of age, gender, site, or smoking status. With regard to efficacy endpoints, the following tables present efficacy used in the ITT (Intent-to-Treat) and PP (Per Protocol) populations unless otherwise specific. The primary inference was based upon Week 16 visit using the ITT population. Change from baseline was obtained by subtracting the baseline values from the individual on-treatment values. Change from Week 16 was obtained by subtracting the Week 16 values from the individual follow-up visit (Week 18/19) values. If either the baseline or Week 16 or on-treatment or follow-up value was missing, the change from baseline or Week 16 value was also set to missing. […]
# [1] = ITT, Double Blind Week 18 LOCF (Follow-up), change from Week 16
# [2] = PP, Double Blind Week 16 LOCF (change from Week 8)
# [3] = PP, Double Blind Week 18 LOCF (Follow-up), change from Week 16
compound,measurement,setting,value
"CNC1(C)C2CCC(C2)C1(C)C (stereo in doubt) [TC-5214, (S)—N,2,3,3-tetramethylnorbornan-2-amine]",CGI-SI score change from baseline compared with placebo,"ITT and PP populations, result in words",statistically significant decreases (improvements)
same,CGI-SI Mean Difference between TC-5214 and Placebo,"ITT, Double Blind Week 16 LOCF (change from Week 8)",0.87
same,CGI-SI Adjusted Mean change,[1],−0.05
same,CGI-SI Mean Difference between TC-5214 and Placebo,[1],0.01
same,CGI-SI Difference vs Placebo + CIT,"ITT, Week 8 to Week 16 LOCF",−0.87
same,CGI-SI Adj. Mean change,"ITT, change from Week 8 (double-blind baseline) to Week 16 LOCF, add-on to citalopram",−1.79
same,CGI-SI Adjusted Mean change,[2],−2.00
same,CGI-SI Mean Difference between TC-5214 and Placebo,[2],0.92
same,CGI-SI Adjusted Mean change,[3],−0.07
same,CGI-SI Mean Difference between TC-5214 and Placebo,[3],0.05
